This series is described as follows: Viscosity of prepared electrolyte solution, Rheometer (AR2000). In kind it is physicochemical. Particulars: solvent PC. As for the experimental part: The solubilities of each metal-ligand coordination compound obtained in Preparation Examples 1 through 3 in solvents and viscosity of prepared electrolyte solutions were measured and the results are shown in Table 1. Viscosities were measured using a Rheometer (AR2000).

Turning to `F[B-](F)(F)F.F[B-](F)(F)F.[Ni+2].c1ccc(-c2ccccn2)nc1.c1ccc(-c2ccccn2)nc1.c1ccc(-c2ccccn2)nc1` [Preparation Example 2, Ni^2+—(bpy)3 [BF4]2], the “Viscosity (cps)” value came to 4.9 cps.
To `F[B-](F)(F)F.F[B-](F)(F)F.[Fe+2].c1ccc(-c2ccccn2)nc1.c1ccc(-c2ccccn2)nc1.c1ccc(-c2ccccn2)nc1` [Preparation Example 1, Fe^2+—(bpy)3 [BF4]2] belongs 4.8 cps.

The record behind these values is patent US20120171531A1, “REDOX FLOW BATTERY” (Samsung Electronics Co., Ltd., priority 2010, published 2012).
